Key:
Format in all cases: biochemical
human ABHD6 = target: T1, human ABHD6 (Homo sapiens, UniProt Q9BV23); test: ABHD6 activity assay (AA-HNA fluorogenic substrate); conditions: 100 µM, AA-HNA substrate assay, Supplementary Table 2; read-out: ABHD6 Inhibition (%)
T1 construct: expressed in transfected cells; host or cells: HEK293T (transient transfection; membrane fraction)
T1 sequence (Q9BV23 1-337): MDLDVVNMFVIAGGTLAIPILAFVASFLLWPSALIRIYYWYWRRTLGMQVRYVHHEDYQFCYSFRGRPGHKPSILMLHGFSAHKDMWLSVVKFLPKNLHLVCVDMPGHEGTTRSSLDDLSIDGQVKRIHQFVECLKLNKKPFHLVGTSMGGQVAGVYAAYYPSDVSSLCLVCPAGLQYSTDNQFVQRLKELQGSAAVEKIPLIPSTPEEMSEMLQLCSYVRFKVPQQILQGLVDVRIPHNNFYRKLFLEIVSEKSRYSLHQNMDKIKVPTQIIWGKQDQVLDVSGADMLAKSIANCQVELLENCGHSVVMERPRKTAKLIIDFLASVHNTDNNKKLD
Procedure: (§1) HEK293T cells were cultured at 37°C under 5% CO2 in a DMEM medium with stable glutamine and phenolred, containing 10% fetal bovine serum (FBS, Gibco), penicillin, and streptomycin. The cells were passaged every 2–3 days by resuspension in the medium at ∼90% confluence. The membranes used in this study were prepared from transiently transfected HEK293T cells. Briefly, 1 day prior to transfection, ∼10^7 cells were seeded in 15 cm plates, and then the cells were transfected by the addition of a mixture of polyethyleneimine and plasmid DNA (3:1, 60, and 20 µg) in 2 ml of medium (without serum). Of note, the empty pcDNA3.1 vector was used in the Mock-control. After 24 h, the medium was removed and the cells were refreshed with fresh medium. After 72 h, the cells were harvested by suspending in 20 ml of medium, and the supernatant was removed by centrifugation for 10 min at 1,000 rpm. The cell pellet was flash frozen in liquid nitrogen and stored at −80°C until use. Subsequently, the cell pellets were suspended in lysis buffer (30 mM Tirs, pH 7.5, 1 mM MgCl2, 25 U/ml Benzonase), which was homogenized by sonication (3 × 10 bursts) and incubated for 30 min on ice. The membrane fractions overexpressing MAGL/ABHD6/ABHD12 were separated by ultracentrifuge (100,000 g, 30 min, 4 C). The protein concentration was determined with a Qubit protein assay (Invitrogen). The protein samples were quickly frozen in liquid nitrogen and stored at −80 C until use.
The MAGL activity assay is based on the hydrolysis of 2-arachidonoylglycerol-based fluorogenic substrate by MAGL-overexpressing membrane preparations from transiently transfected HEK293T cells. In brief, the reactions were performed in HEPES buffer (40 mM HEPES, pH 7.5, 0.1 mg/ml BSA) in black, flat bottom 96-well plates. The final protein concentration of membrane fractions from overexpressing human MAGL HEK293T cells was 12.5 μg/ml 5 µl of inhibitors were added from×40 concentrated DMSO stocks in the 96-well plate containing 145 µl assay buffer, followed by the addition of 40 µl of the protein (12.5 μg/ml). After the incubation of the inhibitor-protein complex for 30 min, 10 µl of the fluorogenic substrate (AA-HNA, 200 µM) was added and fluorescence was measured in 1 min intervals for 30 min on a plate reader (BioTek). Final assay concentrations: 12.5 μg/ml MAGL, […], and […] in the total volume of 200 µl. All the measurements were performed in N = 2, n = 2 for inhibitors and N = 2, n = 4 for controls with Z′ value ≥0.6. The slope is determined in 5–15 min for all the experiments.
The ABHD6 activity assay is based on the same principle as the MAGL activity assay described earlier, but with human ABHD6 overexpressing membrane preparations at a final protein concentration of 50 μg/ml and 200 µM AA-HNA. Other conditions are the same as those of the MAGL activity assay.

human ABHD12 = target: T2, human ABHD12 (Homo sapiens, UniProt Q8N2K0); test: ABHD12 activity by competitive ABPP with FP-TAMRA; conditions: 100 µM compound; competitive ABPP with probe FP-TAMRA (250 nM); read-out: ABHD12 Inhibition (%)
T2 construct: expressed in transfected cells; host or cells: HEK293T (transient transfection; membrane fraction)
T2 sequence (Q8N2K0 1-398): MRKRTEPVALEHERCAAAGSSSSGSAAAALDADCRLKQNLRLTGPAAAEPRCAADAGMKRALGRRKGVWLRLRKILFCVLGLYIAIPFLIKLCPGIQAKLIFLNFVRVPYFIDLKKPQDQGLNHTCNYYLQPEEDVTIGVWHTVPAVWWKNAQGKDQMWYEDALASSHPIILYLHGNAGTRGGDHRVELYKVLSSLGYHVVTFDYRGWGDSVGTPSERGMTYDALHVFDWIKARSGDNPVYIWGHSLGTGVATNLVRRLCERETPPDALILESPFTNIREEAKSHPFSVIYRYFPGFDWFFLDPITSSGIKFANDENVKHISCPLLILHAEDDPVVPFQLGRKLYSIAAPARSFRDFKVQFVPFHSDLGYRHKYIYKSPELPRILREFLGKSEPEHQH
Procedure: as §1
The ABHD12 activity assay is based on competitive activity-based protein profiling (ABPP) with human ABHD12 overexpressing membrane fractions. Briefly, the membrane proteome (1 mg/ml, 20 µl) was incubated at room temperature with 0.5 µl DMSO (vehicle) or inhibitor for 30 min. Subsequently, the samples were treated with the activity-based probe FP-TAMRA (250 nM, final concentration) for 20 min. The reactions were then quenched by 10 µl sample buffer (×4) (final concentrations: 60 mM Tris, pH 6.8, 2% (w/v) SDS, 10% (v/v) glycerol, 5% (v/v) β-mercaptoethanol, 0.01% (v/v) bromophenol blue). The samples were directly loaded and resolved on SDS-PAGE gel (10% acrylamide), which were then scanned using a ChemiDoc MP system (Cy3 settings, BioRad).

human MAGL = target: T3, human MAGL (Homo sapiens, UniProt Q99685); test: MAGL activity assay (AA-HNA fluorogenic substrate); conditions: 100 µM, AA-HNA substrate assay, Supplementary Table 1; read-out: MAGL Inhibition (%)
T3 construct: expressed in transfected cells; host or cells: HEK293T (transient transfection; membrane fraction)
T3 sequence (Q99685 1-303): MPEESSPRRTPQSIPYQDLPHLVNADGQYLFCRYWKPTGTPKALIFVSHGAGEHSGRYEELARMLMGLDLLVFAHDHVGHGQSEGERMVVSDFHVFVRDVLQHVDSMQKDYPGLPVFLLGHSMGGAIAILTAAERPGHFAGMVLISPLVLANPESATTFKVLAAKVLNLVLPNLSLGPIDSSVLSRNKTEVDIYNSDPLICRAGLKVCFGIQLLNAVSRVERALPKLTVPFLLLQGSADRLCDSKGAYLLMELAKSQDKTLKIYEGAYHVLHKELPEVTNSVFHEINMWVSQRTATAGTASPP
Procedure: as §1
The MAGL activity assay is based on the hydrolysis of 2-arachidonoylglycerol-based fluorogenic substrate by MAGL-overexpressing membrane preparations from transiently transfected HEK293T cells. In brief, the reactions were performed in HEPES buffer (40 mM HEPES, pH 7.5, 0.1 mg/ml BSA) in black, flat bottom 96-well plates. […] After the incubation of the inhibitor-protein complex for 30 min, 10 µl of the fluorogenic substrate (AA-HNA, 200 µM) was added and fluorescence was measured in 1 min intervals for 30 min on a plate reader (BioTek). […] All the measurements were performed in N = 2, n = 2 for inhibitors and N = 2, n = 4 for controls with Z′ value ≥0.6. The slope is determined in 5–15 min for all the experiments.

Row | Structure (SMILES) | activity at 100 µM (human ABHD6) | activity at 100 µM (human ABHD12) | activity at 100 µM (human MAGL) | activity (human ABHD6) | activity (human ABHD12) | activity (human MAGL)
1 | CN(C)Cc1c[nH]c2ccccc12 [compound 35, Gramine] | 99% | 82.7% | 97.3% |  |  | 
2 | COc1ccc2ccc(=O)oc2c1CC=C(C)C [compound 62, Osthole] | 112% | 106% | 94.5% |  |  | 
3 | COc1ccc([C@@H]2CC(=O)c3c(O)cc(O[C@@H]4O[C@H](CO[C@@H]5O[C@@H](C)[C@H](O)[C@@H](O)[C@H]5O)[C@@H](O)[C@H](O)[C@H]4O)cc3O2)cc1O [compound 38, Hesperidin] |  |  |  | 94.3% | 76.6% | 91.4%
4 | COc1ccc([C@@H]2CC(=O)c3c(O)cc(O)cc3O2)cc1O [compound 37, Hesperetin] | 104% | 83.6% | 90.9% |  |  | 
5 | C=C[C@H]1CN2CC[C@H]1C[C@H]2[C@H](O)c1ccnc2ccccc12 [compound 21, Cinchonidine] | 109% | 77.6% | 59.3% |  |  | 
6 | C=CCc1ccc(O)c(-c2cc(CC=C)ccc2O)c1 [compound 48, Magnolol] | 101% | 107% | 72.2% |  |  | 
7 | O=c1c(O)c(-c2cc(O)c(O)c(O)c2)oc2cc(O)cc(O)c12 [compound 52, Myricetin] | 100% | 63.9% | 41.2% |  |  | 
8 | OCc1c[nH]c2ccccc12 [compound 42, Ndole-3-carbinol] |  |  |  | 101% | 80.9% | 70.6%
9 | C[C@H](CCC(=O)O)[C@H]1CC[C@H]2[C@@H]3C[C@H](O)[C@@H]4C[C@H](O)CC[C@]4(C)[C@H]3CC[C@]12C [compound 40, Hyodeoxycholic] |  |  |  | 95.4% | 70.8% | 97%
10 | O=C(O)[C@H]1O[C@@H](Oc2cc3oc(-c4ccccc4)cc(=O)c3c(O)c2O)[C@H](O)[C@@H](O)[C@@H]1O [compound 15, Baicalin] | 121% | 85.9% | 80.3% |  |  | 
11 | N#C[C@H](O[C@@H]1O[C@H](CO[C@@H]2O[C@H](CO)[C@@H](O)[C@H](O)[C@H]2O)[C@@H](O)[C@H](O)[C@H]1O)c1ccccc1 [compound 7, Amygdalin] | 90.2% | 69.8% | 75.9% |  |  | 
12 | O=C(O)CCCc1c[nH]c2ccccc12 [compound 4, 3-Indolebutyric acid] | 97.2% | 77.2% | 85.4% |  |  | 
13 | CC1(C)O[C@H]2CC(=O)OC[C@]23[C@H]2CC[C@@]4(C)[C@H](c5ccoc5)OC(=O)[C@H]5O[C@]54[C@]2(C)C(=O)C[C@@H]13 [compound 46, Limonin] | 103% | 83.1% | 90.6% |  |  | 
14 | CC1(C)[C@@H](O)CC[C@]2(C)[C@H]3C(=O)C=C4[C@@H]5C[C@@](C)(C(=O)O)CC[C@]5(C)CC[C@@]4(C)[C@]3(C)CC[C@@H]12 [compound 30, Enoxolone] | 92% | 89.1% | 95.9% |  |  | 
15 | O=C1CCC[C@@H]2[C@H]3CCCN4CCC[C@@H](CN12)[C@@H]34 [compound 49, (+)-Matrine] |  |  |  | 98.3% | 84.4% | 85.4%
